From patent US9005937B2, “Dual cofactor specific ribitol dehydrogenase and use thereof” (Konkuk University Industrial Cooperation Corp., priority 2011, dated 2015)
Like-named read-outs stand apart in the source and are kept apart here.

Columns and labels:
[1] = target: T1, Zymomonas mobilis ribitol dehydrogenase, wild-type, SEQ ID NO: 4 (Zymomonas mobilis, UniProt Q5NQS1); assay: Dynamical (kinetic) parameters of ribitol dehydrogenase to coenzyme NAD(H)/NADP(H), wild-type; assay type: biochemical
T1 sequence (Q5NQS1 74-338): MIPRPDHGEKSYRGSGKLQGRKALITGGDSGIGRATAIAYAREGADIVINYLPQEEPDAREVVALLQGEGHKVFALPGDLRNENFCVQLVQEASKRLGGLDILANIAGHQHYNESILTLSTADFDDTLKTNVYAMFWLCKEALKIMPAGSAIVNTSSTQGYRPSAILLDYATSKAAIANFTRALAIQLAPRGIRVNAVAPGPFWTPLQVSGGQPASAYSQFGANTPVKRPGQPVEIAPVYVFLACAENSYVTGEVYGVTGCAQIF
Method: (§2) The optimum pH on dehydrogenation activity of the ribitol dehydrogenase was measured using 20 mM of Tris-HCl buffer. The enzyme activity was determined by monitoring the change per minute in absorbance at 340 nm while the sample was reacted in the presence of NAD(H) and ribitol.
Then, dynamical parameters were measured through a nonlinear regression analysis.

[2] = target: T2, Zymomonas mobilis ribitol dehydrogenase (SEQ ID NO: 4) variant S156A (Zymomonas mobilis, UniProt Q5NQS1, S229A); assay: Dynamical parameters to coenzyme, variant S156A; assay type: biochemical
T2 sequence (Q5NQS1 74-338 S229A): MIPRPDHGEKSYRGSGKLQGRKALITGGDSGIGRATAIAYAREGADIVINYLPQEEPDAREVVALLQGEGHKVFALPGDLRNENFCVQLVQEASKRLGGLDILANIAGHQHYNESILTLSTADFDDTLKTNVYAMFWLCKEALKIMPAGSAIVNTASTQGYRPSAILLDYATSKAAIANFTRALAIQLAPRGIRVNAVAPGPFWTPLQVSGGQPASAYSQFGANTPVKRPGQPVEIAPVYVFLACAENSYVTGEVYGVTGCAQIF
From the text: (§1) There were no differences between the expression amount of various amino acid variants of Ser 156 and the expression amount of wide-type. The dynamical parameter of each of variants was confirmed using the above variants.

[3] = target: T3, Zymomonas mobilis ribitol dehydrogenase (SEQ ID NO: 4) variant S156G (Zymomonas mobilis, UniProt Q5NQS1, S229G); assay: Dynamical parameters to coenzyme, variant S156G; assay type: biochemical
T3 sequence (Q5NQS1 74-338 S229G): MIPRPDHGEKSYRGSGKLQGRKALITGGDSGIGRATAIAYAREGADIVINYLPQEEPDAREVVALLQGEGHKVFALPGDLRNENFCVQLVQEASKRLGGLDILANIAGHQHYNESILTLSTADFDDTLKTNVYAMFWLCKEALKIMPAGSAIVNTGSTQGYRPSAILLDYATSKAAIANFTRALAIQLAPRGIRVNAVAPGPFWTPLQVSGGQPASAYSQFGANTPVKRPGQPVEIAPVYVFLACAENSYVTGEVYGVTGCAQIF
From the text: as §1

[4] = target: T4, Zymomonas mobilis ribitol dehydrogenase (SEQ ID NO: 4) variant S156T (Zymomonas mobilis, UniProt Q5NQS1, S229T); assay: Dynamical parameters to coenzyme, variant S156T; assay type: biochemical
T4 sequence (Q5NQS1 74-338 S229T): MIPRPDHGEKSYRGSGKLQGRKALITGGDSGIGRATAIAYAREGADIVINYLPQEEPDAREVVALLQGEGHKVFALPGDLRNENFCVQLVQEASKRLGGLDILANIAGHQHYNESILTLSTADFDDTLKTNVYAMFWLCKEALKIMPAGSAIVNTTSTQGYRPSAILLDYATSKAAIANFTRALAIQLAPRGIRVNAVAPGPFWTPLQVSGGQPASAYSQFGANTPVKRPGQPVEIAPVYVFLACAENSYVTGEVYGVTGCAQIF
From the text: as §1

[5] = target: T5, Zymomonas mobilis ribitol dehydrogenase (SEQ ID NO: 4) variant S156C (Zymomonas mobilis, UniProt Q5NQS1, S229C); assay: Dynamical parameters to coenzyme, variant S156C; assay type: biochemical
T5 sequence (Q5NQS1 74-338 S229C): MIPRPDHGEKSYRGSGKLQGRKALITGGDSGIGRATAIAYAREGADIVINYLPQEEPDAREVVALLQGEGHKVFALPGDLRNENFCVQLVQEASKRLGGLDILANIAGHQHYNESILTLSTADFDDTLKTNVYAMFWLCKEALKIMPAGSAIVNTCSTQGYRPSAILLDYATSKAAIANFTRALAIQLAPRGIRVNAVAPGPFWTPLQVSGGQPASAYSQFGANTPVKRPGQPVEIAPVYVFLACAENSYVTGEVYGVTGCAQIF
From the text: as §1

[6] = target: T6, Zymomonas mobilis ribitol dehydrogenase (SEQ ID NO: 4) variant S156Y (Zymomonas mobilis, UniProt Q5NQS1, S229Y); assay: Dynamical parameters to coenzyme, variant S156Y; assay type: biochemical
T6 sequence (Q5NQS1 74-338 S229Y): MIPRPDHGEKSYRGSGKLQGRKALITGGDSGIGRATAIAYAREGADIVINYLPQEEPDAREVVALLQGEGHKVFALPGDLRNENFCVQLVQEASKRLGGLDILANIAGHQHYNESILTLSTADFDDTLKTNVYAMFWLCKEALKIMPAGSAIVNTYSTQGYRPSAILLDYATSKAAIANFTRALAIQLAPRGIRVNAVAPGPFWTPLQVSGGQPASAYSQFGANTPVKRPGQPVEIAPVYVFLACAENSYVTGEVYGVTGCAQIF
From the text: as §1

[7] = target: T7, Zymomonas mobilis ribitol dehydrogenase (SEQ ID NO: 4) variant S156W (Zymomonas mobilis, UniProt Q5NQS1, S229W); assay: Dynamical parameters to coenzyme, variant S156W; assay type: biochemical
T7 sequence (Q5NQS1 74-338 S229W): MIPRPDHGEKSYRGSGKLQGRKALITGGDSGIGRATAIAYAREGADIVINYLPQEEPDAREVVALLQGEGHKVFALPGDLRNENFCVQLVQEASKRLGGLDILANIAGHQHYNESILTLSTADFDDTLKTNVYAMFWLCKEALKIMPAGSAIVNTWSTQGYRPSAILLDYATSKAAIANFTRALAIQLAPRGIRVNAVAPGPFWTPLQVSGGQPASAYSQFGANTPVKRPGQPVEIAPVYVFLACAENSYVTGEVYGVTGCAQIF
From the text: as §1

[8] = target: T8, Zymomonas mobilis ribitol dehydrogenase (SEQ ID NO: 4) variant S156D, SEQ ID NO: 5 (Zymomonas mobilis, UniProt Q5NQS1, N321D/S229D); assay: Dynamical parameters to coenzyme, variant S156D; assay type: biochemical
T8 sequence (Q5NQS1 74-338 S229D/N321D): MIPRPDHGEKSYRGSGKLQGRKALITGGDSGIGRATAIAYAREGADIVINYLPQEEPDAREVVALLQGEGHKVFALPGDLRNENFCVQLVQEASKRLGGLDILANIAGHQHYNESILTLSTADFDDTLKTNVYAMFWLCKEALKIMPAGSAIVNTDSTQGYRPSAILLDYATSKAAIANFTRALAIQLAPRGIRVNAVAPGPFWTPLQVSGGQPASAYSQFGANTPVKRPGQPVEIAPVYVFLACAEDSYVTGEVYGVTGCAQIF
From the text: In addition, the present invention provides a ribitol dehydrogenase mutant selected from the group consisting of a) a mutant, in which serine, an amino acid at position 156 of the ribitol dehydrogenase having an amino acid sequence as set forth in SEQ ID NO: 4 is substituted with aspartic acid; and b) a mutant, in which tyrosine, an amino acid at position 51 of the ribitol dehydrogenase having an amino acid sequence as set forth in SEQ ID NO: 4 is substituted with aspartic acid and serine, an amino acid at position 156 is substituted with alanine.
The mutants have preferably amino acid sequences as set forth in SEQ ID NOS: 5 and 6, respectively, but the present invention is not limited thereto.
as §1

[9] = target: T9, Zymomonas mobilis ribitol dehydrogenase (SEQ ID NO: 4) variant S156E (Zymomonas mobilis, UniProt Q5NQS1, S229E); assay: Dynamical parameters to coenzyme, variant S156E; assay type: biochemical
T9 sequence (Q5NQS1 74-338 S229E): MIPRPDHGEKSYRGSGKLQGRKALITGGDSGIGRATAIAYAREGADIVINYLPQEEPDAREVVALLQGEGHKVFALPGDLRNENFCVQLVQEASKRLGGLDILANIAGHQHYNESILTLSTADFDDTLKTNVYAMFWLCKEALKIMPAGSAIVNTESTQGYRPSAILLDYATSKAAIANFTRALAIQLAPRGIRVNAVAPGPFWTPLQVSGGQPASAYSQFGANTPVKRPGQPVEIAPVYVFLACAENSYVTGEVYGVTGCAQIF
From the text: as §1

[10] = Optimum pH on dehydrogenation activity of the ribitol dehydrogenase; assay type: biochemical; settings: 20 mM Tris-HCl buffer; NAD(H) and ribitol; absorbance at 340 nm
From the text: Physicochemical properties of the ribitol dehydrogenase isolated in Example 4 were investigated using ribitol as a substrate.

[11] = Production of L-ribulose from ribitol with cell bodies of recombinant strains expressing the variants; assay type: cell-based, E. coli; settings: whole cells, 25° C., 6 hours; for L-ribulose produced, concentration: 20 mM Tris-HCl buffer pH 9.5, HPLC
Method: The following experiments were performed in order to produce L-ribulose using a ribitol dehydrogenase variant having double coenzyme specificity. The variants prepared by using the method of Example 5-3 were expressed using the method of Example 2; the cell bodies were only collected by centrifuging (8000×g for 10 minutes) the recombinant strain culture solution; and then the cell bodies were washed with distilled water twice. The final Cell OD was measured and the same amount of cells was used for a production experiment. The ribitol and each of recombinant enzyme variants were subjected to an enzyme reaction in 20 mM of Tris-HCl buffer (pH 9.5) at a temperature of 25° C. for 6 hours.

[12] = coenzyme NAD(H)
Method: as §2

[13] = coenzyme NADP(H)
Method: as §2

[14] = substrate: NC(=O)c1ccc[n+]([C@@H]2O[C@H](COP(=O)(O)OP(=O)(O)OC[C@H]3O[C@@H](n4cnc5c(N)ncnc54)[C@H](OP(=O)(O)O)[C@@H]3O)[C@@H](O)[C@H]2O)c1; assay: purified protein, by the assay type; settings: ribitol, wild-type, pH 9.0
[15] = read-out: Km, NAD, NAD 0.01 to 3 mM
[16] = other: NADP(H) 0.1 to 2 mM, 20 mM Tris-HCl, 340 nm

Molecule: NC(=O)c1ccc[n+]([C@@H]2O[C@H](COP(=O)(O)OP(=O)(O)OC[C@H]3O[C@@H](n4cnc5c(N)ncnc54)[C@H](O)[C@@H]3O)[C@@H](O)[C@H]2O)c1 [NAD^+, nicotinamide adenine dinucleotide]
- kcat (NAD^+) ([1]; NAD 0.01 to 3 mM): 4.83 ± 0.51 s⁻¹
- kcat (NAD(H)) ([1]; NAD(H) 0.1 to 2 mM, 20 mM Tris-HCl, 340 nm): about 4.84 s^−1
- Km [1, 15]: 180 ± 20 µM
- Km ([1]; read-out: Km, NAD, NAD(H) 0.1 to 2 mM, 20 mM Tris-HCl, 340 nm): ~180 µM
- kcat (NAD^+) ([2]; NAD 0.01 to 3 mM): 1.93 ± 0.16 s⁻¹
- Km [2, 15]: 190 ± 20 µM
- kcat (NAD^+) ([3]; NAD 0.01 to 3 mM): 1.04 ± 0.02 s⁻¹
- Km [3, 15]: 140 ± 10 µM
- kcat (NAD^+) ([4]; NAD 0.01 to 3 mM): 2.85 ± 0.10 s⁻¹
- Km [4, 15]: 210 ± 60 µM
- kcat (NAD^+) ([5]; NAD 0.01 to 3 mM): 2.00 ± 0.09 s⁻¹
- Km [5, 15]: 100 ± 20 µM
- kcat (NAD^+) ([6]; NAD 0.01 to 3 mM): 1.60 ± 0.13 s⁻¹
- Km [6, 15]: 150 ± 10 µM
- kcat (NAD^+) ([7]; NAD 0.01 to 3 mM): 2.62 ± 0.11 s⁻¹
- Km [7, 15]: 160 ± 20 µM
- kcat (NAD^+) ([8]; NAD 0.01 to 3 mM): 1.79 ± 0.01 s⁻¹
- Km [8, 15]: 20 ± 2 µM
- kcat (NAD^+) ([9]; NAD 0.01 to 3 mM): 2.06 ± 0.07 s⁻¹
- Km [9, 15]: 50 ± 3 µM

B1: Zymomonas mobilis ribitol dehydrogenase, wild-type, SEQ ID NO: 4 (Zymomonas mobilis subsp. mobilis ZM4 = ATCC 31821) (protein)
chain: MIPRPDHGEKSYRGSGKLQGRKALITGGDSGIGRATAIAYAREGADIVINYLPQEEPDAREVVALLQGEGHKVFALPGDLRNENFCVQLVQEASKRLGGLDILANIAGHQHYNESILTLSTADFDDTLKTNVYAMFWLCKEALKIMPAGSAIVNTSSTQGYRPSAILLDYATSKAAIANFTRALAIQLAPRGIRVNAVAPGPFWTPLQVSGGQPASAYSQFGANTPVKRPGQPVEIAPVYVFLACAENSYVTGEVYGVTGCAQIF
- optimum pH [10]: 9.5
- L-ribulose produced, concentration [11]: 0.80 g/L
- Relative activity (%), NAD(H) [12]: 100%
- Relative activity (%), NADP(H) [13]: 42.9%
- Km ([14]; other: NADP 0.01 to 3 mM): 260 ± 20 µM
- kcat ([14]; other: NADP 0.01 to 3 mM): 2.79 s⁻¹
- kcat/Km ([14]; other: NADP 0.01 to 3 mM): 10800 M⁻¹ s⁻¹
- Km [14, 16]: 260 µM
- kcat [14, 16]: 2.79 s⁻¹

B2: S156D: mutant in which serine at position 156 of SEQ ID NO: 4 is substituted with aspartic acid (SEQ ID NO: 5) (protein)
chain: MIPRPDHGEKSYRGSGKLQGRKALITGGDSGIGRATAIAYAREGADIVINYLPQEEPDAREVVALLQGEGHKVFALPGDLRNENFCVQLVQEASKRLGGLDILANIAGHQHYNESILTLSTADFDDTLKTNVYAMFWLCKEALKIMPAGSAIVNTDSTQGYRPSAILLDYATSKAAIANFTRALAIQLAPRGIRVNAVAPGPFWTPLQVSGGQPASAYSQFGANTPVKRPGQPVEIAPVYVFLACAEDSYVTGEVYGVTGCAQIF
modifications: mutant
- L-ribulose produced, concentration [11]: 1.21 g/L
- conversion rate of L-ribulose in the whole cell level compared with wild-type (in words) ([11]; pH 9.5): higher
